System: P388 lymphocytic leukemia
Experiment: Activity against the P388 lymphocytic leukemia
Format: cell-based
Settings: same level as routinely obtained with the natural product

Substance: dolastatin 10 [Synthetic dolastatin 10]
- ED50, activity against the P388 lymphocytic leukemia: 10^-4 μg/mL

Reference: patent US4978744A, “Synthesis of dolastatin 10” (Arizona Board of Regents, priority 1989, dated 1990)
